From patent publication US20040002505A1, “Medicinal compositions for cocominant use as anticancer agent” (priority 2000, published 2004)
Structures can show the parent of a compound that is named as a salt. Where two headings read alike, the source gives them in different places.

Assays:
[1] = test system: Human colon cancer strain Colo320D.M.; assay: Combined use of E7070 and 5-FU in human colon cancer Colo320D.M. xenograft model; settings: alone or simultaneous; for Toxicity Dead/Treated: E7070 30 mg/kg/day day 1-5, 5-FU 60 mg/kg/day day 1, 5, 9
Description: (§1) Cancer Chemother Pharmacol. 1992;30(1):25-30; (ii)Enhancement of vincristine cytotoxicity in drug-resistant cells by simultaneous treatment with onconase, an antitumor ribonuclease. J Natl Cancer Inst. 1996 June 5;88(11):747-53; (iii)Effects of growth hormone and testosterone on cortical bone formation and bone density in aged orchiectomized rats. Bone. 1999 May;24(5):491-7).

[2] = test system: Human colon cancer strain HCT15; settings: alone or in combination; for Toxicity Dead/Treated: E7070 30 mg/kg/day QDx5, CPT-11 75 mg/kg/day Q4Dx3; for Tx4 (days) mean ± S.D.: HCT15 xenograft, nude mice, iv, E7070 30 mg/kg/day QDx5 (day 1-5), CPT-11 75 mg/kg/day Q4Dx3 (day 1, 5, 9)
Description: as §1

[3] = test system: Human colon cancer strain SW620; settings: E7070 25 mg/kg/day day 1-5, CPT-11 62.5 mg/kg/day day 1, 5, 9, alone or simultaneous
Description: as §1

[4] = test system: Human non-small cell lung cancer LU-99; settings: alone or simultaneous
Description: as §1

[5] = test system: Human colon cancer strain HCT15; assay: Combined use of E7070 and MMC in human colon cancer HCT15 xenograft model; settings: alone or in combination; for Toxicity Dead/Treated: E7070 25 mg/kg/day QDx5, MMC 4.19 mg/kg/day QDx1; for Tx4 (days) mean ± S.D.: HCT15 xenograft, nude mice, iv, E7070 25 mg/kg/day QDx5 (day 1-5; combination line prints 30 mg/kg/day), MMC 4.19 mg/kg/day QDx1 (day 1)
Description: as §1

[6] = used in combination with E7070; model and data not given
[7] = test system: Human colon cancer strain HCT15; assay: Combined use of E7070 and Gemcitabine in human colon cancer HCT15 xenograft model; format: in vivo, nude mouse; settings: used in combination with E7070; no data given
Description: as §1

[8] = E7070 25 mg/kg/day day 1-5, CDDP 7.5 mg/kg/day day 1

With `O=c1[nH]cc(F)c(=O)[nH]1` [5-FU, 5-fluoro-2,4-(1H,3H)-pyrimidinedione] the “Tx4 (days) mean ± S.D.” value ([1]; Colo320D.M. xenograft, nude mice, iv, E7070 30 mg/kg/day QDx5 (day 1-5), 5-FU 60 mg/kg/day Q4Dx3 (day 1, 5, 9)) was 10.0 ± 0.7 days and the “Toxicity Dead/Treated” value [1] was 0/6.

For `CCc1c2c(nc3ccc(OC(=O)N4CCC(N5CCCCC5)CC4)cc13)-c1cc3c(c(=O)n1C2)COC(=O)[C@]3(O)CC` [CPT-11, [1,4′-Bipiperidine]-1′-carboxylic acid (S)-4,11-diethyl-3,4,12,14-tetrahydro-4-hydroxy-3,14-dioxo-1H-pyrano-[3′,4′:6,7]-indolizino[1,2-b]quinolin-9-yl ester Hydrochloride trihydrate], the “Toxicity Dead/Treated” value [2] was 0/6, the “Tx4 (days) mean ± S.D.” value [2] was 17.8 ± 1.0 days and the “Toxicity Dead/Treated” value [3] was 0/6.

For `NS(=O)(=O)c1ccc(S(=O)(=O)Nc2cccc3c(Cl)c[nH]c23)cc1` [E7070, N-(3-chloro-1H-indol-7-yl)-4-sulfamoylbenzenesulfonamide], the “Toxicity Dead/Treated” value [2] was 0/6, the “Tx4 (days) mean ± S.D.” value [2] was 18.7 ± 2.0 days and the “Toxicity Dead/Treated” value [3] was 0/6. The “mRTV mean ± S.D.” value ([3]; minimum relative tumor volume, day of minimum in parentheses in the cell) was 0.76 ± 0.42(12), the “Toxicity Dead/Treated” value [4, 8] was 0/6 and the “mRTV mean ± S.D.” value ([4]; minimum relative tumor volume, E7070 25 mg/kg/day day 1-5, CDDP 7.5 mg/kg/day day 1) was 0.75 ± 0.16. For the same molecule, the “Toxicity Dead/Treated” value [5] was 0/6, the “Tx4 (days) mean ± S.D.” value [5] was 12.7 ± 2.2 days and the “Toxicity Dead/Treated” value [1] was 0/6.

With `CO[C@@]12[C@H](COC(N)=O)C3=C(C(=O)C(C)=C(N)C3=O)N1C[C@@H]1N[C@@H]12` [MMC, [1aS-(1aα,8β,8aα,8bα)]-6-amino-8-[[(aminocarbonyl)oxy]methyl]1,1a,2,8,8a,8b-hexahydro-8a-methoxy-5-methylazirino[2′,3′:3,4]pyrrolo[1,2-a]indole-4,7-dione] the “Toxicity Dead/Treated” value [5] was 0/6 and the “Tx4 (days) mean ± S.D.” value [5] was 16.2 ± 3.4 days.

For `COc1cccc2c1C(=O)c1c(O)c3c(c(O)c1C2=O)C[C@@](O)(C(=O)CO)C[C@@H]3O[C@H]1C[C@H](N)[C@H](O)[C@H](C)O1` [doxorubicin, 10-[(3-amino-2,3,6-trideoxy-α-L-lyxo-hexopyranosyl)oxy]-7,8,9,10-tetrahydro-6,8,11-trihydroxy-8-(hydroxyacetyl)-1-methoxy-(8S-cis)-5,12-naphthacenedione], the “synergistic effect, antitumor activity” value [6] was “excellent antitumor activity”.

With `Cl.Nc1ccn([C@@H]2O[C@H](CO)[C@@H](O)C2(F)F)c(=O)n1` [gemcitabine hydrochloride, 2′-deoxy-2′,2′-difluoro-cytidine hydrochloride] the “synergistic effect, antitumor activity” value [7] was “excellent antitumor activity”.

With cis-diamminedichloroplatinum [CDDP] the “Toxicity Dead/Treated” value [4, 8] was 0/6, the “Tx4 (days) mean ± S.D.” value ([4]; LU-99 xenograft, nude mice, iv, E7070 25 mg/kg/day QDx5 (day 1-5), CDDP 7.5 mg/kg/day QDx1 (day 1)) was 10.7 ± 0.5 days and the “Toxicity mRBW mean” value ([4]; minimum relative body weight, day of minimum in parentheses in the cell, E7070 25 mg/kg/day day 1-5, CDDP 7.5 mg/kg/day day 1) was 0.95(5).
